{"source": "patent US20250154611A1", "about": "“SYSTEMS AND METHODS TO DETECT STEM CELL STRESS AND USES THEREOF” (Wayne State University, priority 2014, published 2025)", "system": "TSCs", "assay": "qPCR of terminal differentiation markers in TSCs with or without 100 mM sorbitol", "type": "cell-based, mouse", "settings": "0.5% O2, 7 days", "description": ". TSCs were cultured in 0-20% O2 for 0-7 days±FGF4 as indicated, rapidly frozen, and assayed for free ATP (n=4). (FIG. 6B) At 7 days, FGF4 absence increased terminal differentiation markers 8-20 fold at 20% O2, but lower differentiation levels at 0.5% O2 were not increased by a sorbitol dose, which induces high levels of differentiation at 20% O2. TSCs were cultured for 7 days±FGF4 at 20% or 0.5% O2±100 mM sorbitol. mRNA was purified and reverse transcribed, then analyzed for relative amounts of 3 terminal differentiation markers that were normalized to housekeeping mRNAs. Triplicate experiments are shown, with mean±s.e.m. (error bars). […]. (FIG. 6D) Correspondingly, at 7 days, mitochondrial Δψm increased only at O2≥2% with FGF4 removal. TSCs were cultured for 7 days at 20% O2 (a,d), 2% O2 (b,e), or 0.5% O2 (c,f) with FGF4 (a-c) or without FGF4 (d-f) and stained with JC1. Micron bar in micrograph (a) indicates […]. Green fluorescence indicates monomeric stain and low membrane charge and red fluorescence indicates polymeric stain and high charge. For original color fluorescence figures see (Xie, Stem Cell Research, 13:478, 2014 (Xie, 2014)).\nRNA isolation and quantitative reverse transcription-PCR (qRT-PCR). […] Briefly, DNase-treated total RNA was isolated following cDNA preparation using QuantiTect Reverse Transcription Kit […] (Qiagen). […]", "data": [{"smiles": "OC[C@@H](O)[C@@H](O)[C@H](O)[C@@H](O)CO", "note": "[sorbitol]", "values": [{"measurement": "mRNA expression of terminal differentiation markers PL1, Plf, synTa", "result": "did not increase"}]}]}
